System: Escherichia coli
Test: Tested for inhibition of puromycin reaction and reported as equilibrium constant derived from primary and secondary kinetic plots for the inhibition of peptide bond formation
Type: functional

For `CS(=O)(=O)c1ccc([C@@H](O)[C@@H](CO)NC(=O)C(Cl)Cl)cc1` [THIAMPHENICOL], which Ki is on record?
Its Ki is 400 nM.

For `NCC(=O)NC(CO)C(O)c1ccc([N+](=O)[O-])cc1` (stereo unspecified), which Ki is on record?
The Ki was 5500 nM.

With `O=C(N[C@H](CO)[C@H](O)c1ccc([N+](=O)[O-])cc1)C(Cl)Cl` [CHLORAMPHENICOL] as the molecule, how does the Ki read?
The Ki was 700 nM.

With `NS(=O)(=O)c1ccc([C@@H](O)[C@@H](CO)NC(=O)C(Cl)Cl)cc1` [TEVENEL] as the molecule, how does the Ki read?
The Ki was 1700 nM.

Which Ki does the source give for `NC(Cc1ccccc1)C(=O)NC(CO)C(O)c1ccc([N+](=O)[O-])cc1` (stereo unspecified) here?
The Ki was 18000 nM.

Which Ki does the source give for `NC(Cc1ccccc1)C(=O)NCC(=O)NC(CO)C(O)c1ccc([N+](=O)[O-])cc1` (stereo unspecified) here?
Its Ki is 1500 nM.

From ChEMBL document CHEMBL1126895, “Aminoacyl analogs of chloramphenicol: examination of the kinetics of inhibition of peptide bond formation” (J Med Chem, 1993)
